# According to PMC11148045, “Structural basis for recognition of 26RFa by the pyroglutamylated RFamide peptide receptor” (Cell Discovery, 2024):
# No end group written: not given here.
# Tests used:
# [1] = system: NPY1R and NPY4R; settings: cited from earlier work
# From the text: Specifically, Arg25 and Arg35 in 26RFa and NPY/PP are exposed to a conserved polar environment that includes residues E^45.52, T^5.39, and D/E^6.59 in QRFPR and NPYRs. However, subtle differences exist in the special binding interactions between these arginines and conserved polar residues (Fig. 4d–f). Side chains of Arg35 in NPY/PP form a conserved salt bridge with D^6.59 and a hydrogen bond with T^5.39 (NPY1R and NPY4R) or a salt bridge with E^45.52 (NPY2R) (Fig. 4e, f). In 26RFa, Arg25 retains its salt bridge with E203^45.52 but fails to build a salt bridge with E297^6.59 (Fig. 3b). It is p ... || Phe26 in 26RFa and Tyr36 in NPY/PP show distinct binding characteristics for QRFRP and NPYRs, respectively. […] (Fig. 4e). However, in NPY2R, this hydrogen bond is absent due to the substitution of glutamine with leucine at position 5.46, which lacks a hydrogen bond donor (Fig. 4c, f). Similarly, QRFPR also has a leucine at position 5.46, which cannot form a corresponding hydrogen bond with Phe26 in 26RFa. Furthermore, in contrast to the notable impact of Q^5.46 on the NP ...
# [2] = system: QRFPR; settings: cited from earlier work
# From the text: The 26RFa/QRFPR system plays critical roles in energy homeostasis. Uncovering the atomic details of 26RFa recognition and regulation of QRFPR is crucial for unraveling the function of QRFPR and developing effective treatments against obesity, diabetes, and eating disorders. […] The unique organization mode is crucial for the recognition of 26RFa by QRFPR. The C-terminal heptapeptide of 26R ...
# [3] = target: T1, QRFPR mutants (Homo sapiens, UniProt Q96P65, T102A); assay: 26RFa-induced calcium mobilization, receptor mutants; format: cell-based; settings: HEK293, QRFPR T102^2.60A; HEK293, Fluo-4; mean ± S.E.M., n ≥ 3
# T1 construct: expressed in transfected cells; host or cells: HEK293, transient transfection by electroporation
# T1 sequence (Q96P65 whole entry T102A): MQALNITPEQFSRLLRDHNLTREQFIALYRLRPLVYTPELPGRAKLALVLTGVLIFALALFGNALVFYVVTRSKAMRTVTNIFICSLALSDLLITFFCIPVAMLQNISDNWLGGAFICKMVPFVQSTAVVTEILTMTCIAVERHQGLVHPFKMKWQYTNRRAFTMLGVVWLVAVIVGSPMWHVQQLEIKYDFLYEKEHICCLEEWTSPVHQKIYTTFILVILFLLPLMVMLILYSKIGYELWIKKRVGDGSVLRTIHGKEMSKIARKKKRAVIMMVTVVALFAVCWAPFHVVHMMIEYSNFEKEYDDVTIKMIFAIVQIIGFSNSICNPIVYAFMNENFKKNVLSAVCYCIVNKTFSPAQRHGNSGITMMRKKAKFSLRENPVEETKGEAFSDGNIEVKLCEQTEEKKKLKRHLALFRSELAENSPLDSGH
# Procedure: (§1) The gene encoding the WT QRFPR, PrPRR, KISS1R, NPFF1R, or NPFF2R was subcloned into the pcDNA3.0 vector with the addition of an N-terminal HA tag. All of the mutations used for functional studies were generated by QuickChange PCR and verified by DNA sequencing.
# (§2) HEK293 cells were obtained from ATCC (Manassas, VA, USA) and cultured in DMEM supplemented with 10% (v/v) FBS, 100 mg/L penicillin, and 100 mg/L streptomycin in 5% CO2 at 37 °C. For transient transfection, ~2.5 × 10^6 cells were mixed with 2 µg plasmids in 200 µL transfection buffer, and electroporation was carried out with a Scientz-2C electroporation apparatus (Scientz Biotech, Ningbo, China). The experiments were carried out 24 h after transfection.
# (§3) For QRFPR, PrRPR, and KISS1R, HEK293 cells transfected with WT receptor or its mutants were seeded at a density of 4 × 10^4 per well into 96-well culture plates and incubated for 24 h at 37 °C in 5% CO2. For NPFF1R and NPFF2R, plasmids were transfected into HEK293 cells stably expressing Gα16. On the next day, cells were incubated with 2 μmol/L Fluo-4 AM in HBSS supplemented with 5.6 mmol/L D-glucose and 250 μmol/L sulfinpyrazone at 37 °C for 45 min. After washing, cells were added with 50 μL HBSS and incubated at room temperature for 10 min, then 25 μL agonist buffer was dispensed into the well using a FlexStation III microplate reader (Molecular Devices), and intracellular calcium change was recorded at an excitation wavelength of 485 nm and an emission wavelength of 525 nm. EC50 and Emax values for each curve were calculated by Prism 8.0 software (GraphPad Software).
# [4] = target: T2, QRFPR mutants (Homo sapiens, UniProt Q96P65, W111A); assay: as above; format: cell-based; settings: HEK293, QRFPR W111^23.50A; HEK293, Fluo-4; mean ± S.E.M., n ≥ 3
# T2 construct: expressed in transfected cells; host or cells: HEK293, transient transfection by electroporation
# T2 sequence (Q96P65 whole entry W111A): as the sequence (Q96P65 whole entry T102A) above, with A102T, W111A counted along it
# Procedure: as §1, §2, §3
# [5] = target: T3, QRFPR mutants (Homo sapiens, UniProt Q96P65, I117A); assay: as above; format: cell-based; settings: HEK293, QRFPR I117^3.24A; HEK293, Fluo-4; mean ± S.E.M., n ≥ 3
# T3 construct: expressed in transfected cells; host or cells: HEK293, transient transfection by electroporation
# T3 sequence (Q96P65 whole entry I117A): as the sequence (Q96P65 whole entry T102A) above, with A102T, I117A counted along it
# Procedure: as §1, §2, §3
# [6] = target: T4, QRFPR mutants (Homo sapiens, UniProt Q96P65, M180A); assay: as above; format: cell-based; settings: HEK293, QRFPR M180^4.60A; HEK293, Fluo-4; mean ± S.E.M., n ≥ 3
# T4 construct: expressed in transfected cells; host or cells: HEK293, transient transfection by electroporation
# T4 sequence (Q96P65 whole entry M180A): as the sequence (Q96P65 whole entry T102A) above, with A102T, M180A counted along it
# Procedure: as §1, §2, §3
# [7] = target: T5, QRFPR mutants (Homo sapiens, UniProt Q96P65, W205A); assay: as above; format: cell-based; settings: HEK293, QRFPR W205^ECL2A; HEK293, Fluo-4; mean ± S.E.M., n ≥ 3
# T5 construct: expressed in transfected cells; host or cells: HEK293, transient transfection by electroporation
# T5 sequence (Q96P65 whole entry W205A): as the sequence (Q96P65 whole entry T102A) above, with A102T, W205A counted along it
# Procedure: as §1, §2, §3
# [8] = target: T6, QRFPR mutants (Homo sapiens, UniProt Q96P65, D109A); assay: as above; format: cell-based; settings: HEK293, QRFPR D109^2.67A; HEK293, Fluo-4; mean ± S.E.M., n ≥ 3
# T6 construct: expressed in transfected cells; host or cells: HEK293, transient transfection by electroporation
# T6 sequence (Q96P65 whole entry D109A): as the sequence (Q96P65 whole entry T102A) above, with A102T, D109A counted along it
# Procedure: as §1, §2, §3
# [9] = target: T7, QRFPR mutants (Homo sapiens, UniProt Q96P65, E203A); assay: as above; format: cell-based
# T7 construct: expressed in transfected cells; host or cells: HEK293, transient transfection by electroporation
# T7 sequence (Q96P65 whole entry E203A): as the sequence (Q96P65 whole entry T102A) above, with A102T, E203A counted along it
# Procedure: as §1, §2, §3
# [10] = target: T8, QRFPR mutants (Homo sapiens, UniProt Q96P65, S108A); assay: as above; format: cell-based; settings: HEK293, QRFPR S108^2.65A; HEK293, Fluo-4; mean ± S.E.M., n ≥ 3
# T8 construct: expressed in transfected cells; host or cells: HEK293, transient transfection by electroporation
# T8 sequence (Q96P65 whole entry S108A): as the sequence (Q96P65 whole entry T102A) above, with A102T, S108A counted along it
# Procedure: as §1, §2, §3
# [11] = target: T9, QRFPR mutants (Homo sapiens, UniProt Q96P65, S126A); assay: as above; format: cell-based; settings: HEK293, QRFPR S126^3.33A; HEK293, Fluo-4; mean ± S.E.M., n ≥ 3
# T9 construct: expressed in transfected cells; host or cells: HEK293, transient transfection by electroporation
# T9 sequence (Q96P65 whole entry S126A): as the sequence (Q96P65 whole entry T102A) above, with A102T, S126A counted along it
# Procedure: as §1, §2, §3
# [12] = target: T10, QRFPR mutants (Homo sapiens, UniProt Q96P65, K189A); assay: as above; format: cell-based; settings: HEK293, QRFPR K189^ECL2A; HEK293, Fluo-4; mean ± S.E.M., n ≥ 3
# T10 construct: expressed in transfected cells; host or cells: HEK293, transient transfection by electroporation
# T10 sequence (Q96P65 whole entry K189A): as the sequence (Q96P65 whole entry T102A) above, with A102T, K189A counted along it
# Procedure: as §1, §2, §3
# [13] = target: T11, QRFPR mutants (Homo sapiens, UniProt Q96P65, C200A); assay: as above; format: cell-based; settings: HEK293, QRFPR C200^ECL2A; HEK293, Fluo-4; mean ± S.E.M., n ≥ 3
# T11 construct: expressed in transfected cells; host or cells: HEK293, transient transfection by electroporation
# T11 sequence (Q96P65 whole entry C200A): as the sequence (Q96P65 whole entry T102A) above, with A102T, C200A counted along it
# Procedure: as §1, §2, §3
# [14] = target: T12, QRFPR (WT) (Homo sapiens, UniProt Q96P65); assay: 26RFa-induced calcium mobilization, wild-type receptor; format: cell-based; settings: HEK293, Fluo-4 AM, ex 485/em 525 nm, mean ± S.E.M., at least three independent experiments
# T12 construct: expressed in transfected cells; host or cells: HEK293, transient transfection by electroporation
# T12 sequence (Q96P65 whole entry): as the sequence (Q96P65 whole entry T102A) above, with A102T counted along it
# Procedure: as §1, §2
# as §3, with “For NPFF1R and NPFF2R, plasmids were transfected into HEK293 cells stably expressing Gα16. On the next day, cells were incubated with 2 μmol/L Fluo-4 AM in HBSS supplemented with 5.6 mmol/L D-glucose and 250 μmol/L sulfinpyrazone at 37 °C for 45 min.” left out
substance,measurement,setting,value
ASGPLGTLAEELSSYSRRKGGFSFRF-NH2 [26RFa],"role of amide-surrounding residues (C^2.57, T^2.61, Q^3.32, Q/H^7.39) in activity",[1],critical for 26RFa and NPY/PP activities
same,selectivity for QRFPR,[2],high selectivity of 26RFa for QRFPR
same,Emax,[3],94 ± 1.4%
same,Emax,[4],73.4 ± 1.7%
same,Emax,[5],75.1 ± 3.1%
same,Emax,[6],93.3 ± 1%
same,Emax,[7],2.58 ± 1.2%
same,Emax,[8],111 ± 1.3%
same,effect of E^45.52 to alanine,"[9]; 26RFa, QRFPR",remarkable decline of activity or potency
same,Emax,"[9]; HEK293, QRFPR E203^45.52A, HEK293, Fluo-4, mean ± S.E.M., n ≥ 3",96.9 ± 0.64%
same,Emax,[10],51.7 ± 0.73%
same,Emax,[11],92.3 ± 4.1%
same,Emax,[12],94.9 ± 1.6%
same,Emax,[13],88.5 ± 1.2%
same,Emax,[14],100 ± 1%
